Experimental data published in patent publication US11649431B2, “Cortical interneurons and other neuronal cells produced by the directed differentiation of pluripotent and multipotent cells” (MEMORIAL SLOAN-KETTERING CANCER CENTER, priority 2013, dated 2023).

Legend:
[1] = system: colon carcinoma cell line DLD-1; details: catenin-dependent colon carcinoma cell line; cited from earlier work
[2] = system: SW480 cells; details: cited from earlier work
[3] = system: human ESC (WA-09, HES-3) and iPS cells (C72, SeV6); assay: FOXG1 / PAX6 induction during neural differentiation of hPSCs (immunofluorescence quantification); assay type: cell-based; details: for PAX6 expression after addition of Wnt antagonist to dual SMAD inhibition protocol: HES-3 (NKX2.1::GFP) line, FIG. 1C; for FOXG1 expression in LSB-treated cultures: Wnt antagonist added to LSB dual SMAD inhibition, XAV939 2 μM, DKK1 250 ng/ml
From the text: Human ESC (lines WA-09, HES-3 (NKX2.1::GFP) and iPS cells (C72, SeV6) were maintained on mouse embryonic fibroblasts (MEFs) as described previously and dissociated with Accutase (Innovative Cell Technologies) for differentiation or dispase for passaging (Chambers et al., Nat Biotechnol 27:275-280 (2009)). Media used for differentiation included KSR-medium, N2 medium (DMEM/F12 with NaHCO3, N2B supplement (Stem Cell Technologies), and Neurobasal media with B27 (Gibco) and N2 supplements (Invitrogen) as described previously. Kriks et al., Nature 480:547-551 (2011). The small molecules compounds used included: XAV939 (2 μM; Stemgent), LDN193189 (100 nM; Stemgent), SB431542 (10 μM; Tocris), and Purmorphamine (1-2 μM; Calbiochem), ascorbic acid (200 μM) and dibutyryl-cyclic AMP (dbcAMP, 200 μM; both from Sigma). Recombinant growth factors: SHH (C25II; 50-500 ng/ml), Noggin (125 ng/ml), DKK1 (250 ng/ml), and BDNF (10 ng/ml) were purchased from R&D Systems or for FGF2 (10 ng/ml) from Promega and used at the concentrations indicated in the manuscript.
Cultures were fixed in 4% paraformaldehyde in phospate-buffered saline and processed for immunofluorescent staining and confocal microscopy. Secondary antibodies used for primary antibody detection were species-specific Alexa-dye conjugates (Invitrogen). For primary antibodies, we used antibodies to rabbit FOXG1 (gift from Eseng Lai); mouse PAX6 (DSHB); mouse NKX2.1 (Labvision); goat NKX2.1 (C-20, Santa Cruz); rabbit OLIG2 (Chemicon); goat FOXA2 (Santa Cruz); rabbit LHX6 (Abeam); mouse RAX (Abnova); rabbit GAPDH (Thermo Scientific); goat DCX (Santa Cruz); mouse TUJ1 (Covance); rabbit GABA (Sigma); mouse Nestin (Thermo Scientific); rabbit KI67 (Labvision); mouse KI67 (Dako); rabbit Calbindin (Chemicon); mouse Calretinin (Swant); chick GFP (Abeam); goat Chat (Chemicon); rat somatostatin (Chemicon); mouse TH (Abeam); rabbit NOS (Swant); mouse Parvalbumin (Chemicon); mouse PSD-95 (Zymed); guinea-pig VGLUT1 (Synaptic systems); rabbit VGAT (Synaptic systems); and mouse Gephyrin (Synaptic Systems).
FOXG1 and PAX6 quantification: Using a 20× objective, 25 fields were imaged from 3 wells and from 4 independent differentiation studies. The number of DAPI+ nuclei was used as the denominator and either FOXG1+ nuclei or PAX6+ nuclei were used for the numerator. NKX2.1::GFP co-labeling: Using a 20× objective, 25-30 fields were imaged from 4 wells from 4 independent differentiations. The number of NKX2.1::GFP+ cells was used as the denominator and the numerator chosen for each analyzed marker. As a control for each marker, secondary antibody in the absence of primary antibody was used as a negative control to designate signal specificity.

[4] = system: motor neurons (MNs); details: trophic factors removed, 72 hr; cited from earlier work

Molecule | proliferation of DLD-1 cells [1] | degradation of β-catenin [2] | protein levels of the axin-GSK3β complex [2] | effect on FOXG1 induction across independent hESC (HES-3, WA-09) and human iPSC lines (C72, SeV6) ([3]; FIG. 1E) | PAX6 expression after addition of Wnt antagonist to dual SMAD inhibition protocol [3] | FOXG1 expression in LSB-treated cultures [3] | healthy survival of MNs [4]
Oc1nc(-c2ccc(C(F)(F)F)cc2)nc2c1CSCC2 [XAV939, 3,5,7,8-Tetrahydro-2-[4-(trifluoromethyl)phenyl]-4H-thiopyrano[4,3-d]pyrimidin-4-one] | inhibits proliferation | promotes the degradation | increases | consistent | did not result in a loss | greatly enhanced | 
O=C1Cc2c([nH]c3ccc(Br)cc23)-c2ccccc2N1 [kenpaullone] |  |  |  |  |  |  | impressive ability to prolong
DKK1: recombinant DKK1 (Dickkopf protein 1), inhibitor of canonical Wnt signaling (protein, UniProt O94907 32-266, looked up) Dickkopf-related protein 1: TLNSVLNSNAIKNLPPPLGGAAGHPGSAVSAAPGILYPGGNKYQTIDNYQPYPCAEDEECGTDEYCASPTRGGDAGVQICLACRKRRKRCMRHAMCCPGNYCKNGICVSSDQNHFRGEIEETITESFGNDHSTLDGYSRRTTLSSKMYHTKGQEGSVCLRSSDCASGLCCARHFWSKICKPVLKEGQVCTKHRRKGSHGLEIFQRCYCGEGLSCRIQKDHHQASNSSRLHTCQRH |  |  |  |  | did not result in a loss | greatly enhanced | 
